From US8324390B2, “Tetrazole-substituted anthranilamides as pesticides” (Bayer CropScience AG, priority 2008, dated 2012)
Where two headings read alike, the source gives them in different places.

What was measured:
[1] = tested on: caterpillars of the armyworm (Spodoptera frugiperda); assay: Spodoptera frugiperda test (SPODFR spray treatment); assay type: in vivo; settings: Spodoptera frugiperda, foliar, read-out: effect in % (caterpillars killed)
Excerpt: Solvent: 78.0 parts by weight of acetone

[2] = log P determination by HPLC (EEC Directive 79/831 Annex V.A8); assay type: physicochemical
Procedure: The measurements were carried out using an Agilent 1100 LC system with a 50*4.6 Zorbax Eclipse C18 1.8 μm column (oven temperature 55° C., flow rate 2.0 ml/min).
The following mobile phases were used:
Mobile phase A: acetonitrile+1000 μl of formic acid/l
Mobile phase B: Millipore water+900 μl of formic acid/l

[3] = tested on: larvae of the mustard beetle (Phaedon cochleariae); assay: Phaedon test (PHAECO spray treatment); settings: Phaedon cochleariae, in Brassica rapa, foliar, read-out: effect in % (beetle larvae killed)
[4] = application rate 100 g/ha, maize leaf discs
[5] = reversed-phase HPLC, Zorbax Eclipse C18 column, by HPLC according to EEC Directive 79/831 Annex V.A8, read-out: log P
[6] = reversed-phase HPLC, Zorbax Eclipse C18 column, determined by HPLC according to EEC Directive 79/831 Annex V.A8, read-out: log P

SMILES | chromatographic logP [2, 5] | chromatographic logP [2, 6] | pest or weed control at 100 g/ha [1, 4] | pest or weed control at 100 g/ha [3] | pest or weed control at 100 g/ha ([1]; in Zea mays) | chromatographic logP ([2]; log P)
Cc1cc(F)cc(C(=O)NCC2CC2)c1NC(=O)c1cc(Cn2nnc(C(F)(F)F)n2)nn1-c1ncccc1Cl [Example 48] | – | – | – | ≥ 80% | ≥ 80% | 3.18
Cc1cc(C#N)cc(C(=O)NCc2ccoc2)c1NC(=O)c1cc(Cn2nnc(C(F)(F)F)n2)nn1-c1ncccc1Cl [Example 99] | – | – | – | ≥ 80% | ≥ 80% | 3.09
Cc1cc(C#N)cc(C(=O)NC2CCCC2)c1NC(=O)c1cc(Cn2nnc(C(F)(F)F)n2)nn1-c1ncccc1Cl [Example 399] | – | – | – | ≥ 80% | ≥ 80% | 3.37
Cc1cc(C#N)cc(C(=O)NCC2CC2(Cl)Cl)c1NC(=O)c1cc(Cn2nnc(C(F)(F)F)n2)nn1-c1ncccc1Cl (stereo not drawn) [Example 88] | – | – | – | ≥ 80% | ≥ 80% | 3.5
Cc1cc(C#N)cc(C(=O)NC(C)(C)C)c1NC(=O)c1cc(Cn2nnc(C(F)F)n2)nn1-c1ncccc1Cl [Example 267] | – | – | – | ≥ 80% | ≥ 80% | 2.88
CCNC(=O)c1cc(Br)cc(C)c1NC(=O)c1cc(Cn2nnnc2C(F)(F)F)nn1-c1ncccc1C(F)(F)F [Example 453] | – | 3.17 | ≥ 80% | ≥ 80% | – | –
Cc1cc(Cl)cc(C(=O)NCC(C)C)c1NC(=O)c1cc(Cn2nnc(C(F)(F)F)n2)nn1-c1ncccc1Cl [Example 37] | – | – | – | ≥ 80% | ≥ 80% | 3.78
Cc1cc(Cl)cc(C(=O)NC(C)C2CC2)c1NC(=O)c1cc(Cn2nnc(C(F)(F)C(F)(F)F)n2)nn1-c1ncccc1Cl (stereo not drawn) [Example 126] | – | – | – | ≥ 80% | ≥ 80% | 4.25

Continued, in another order:

chromatographic logP [2, 5] | chromatographic logP [2, 6] | SMILES | pest or weed control at 100 g/ha [1, 4] | pest or weed control at 100 g/ha [3] | pest or weed control at 100 g/ha ([1]; in Zea mays) | chromatographic logP ([2]; log P)
4.47 | – | CC(C)(C)NC(=O)c1cc(Cl)cc(Cl)c1NC(=O)c1cc(Cn2nnc(C(F)(C(F)(F)F)C(F)(F)F)n2)nn1-c1ncccc1Cl [Example 390] | ≥ 80% | ≥ 80% | – | –
4.43 | – | Cc1cc(Cl)cc(C(=O)NC(C)(C)C)c1NC(=O)c1cc(Cn2nnc(C(F)(F)F)n2)nn1-c1ccccc1Br [Example 348] | ≥ 80% | ≥ 80% | – | –
3.39 | – | Cc1cc(Cl)cc(C(=O)NC2CC2)c1NC(=O)c1cc(Cn2nnc(C(F)(F)F)n2)nn1-c1ncccc1C(F)(F)F [Example 225] | ≥ 80% | ≥ 80% | – | –
3.28 | – | Cc1cc(Cl)cc(C(=O)NCC#N)c1NC(=O)c1cc(Cn2nnc(C(F)(F)F)n2)nn1-c1ncccc1C(F)(F)F [Example 252] | ≥ 80% | ≥ 80% | – | –
4.07 | – | Cc1cc(C#N)cc(C(=O)NC(C)C2CC2)c1NC(=O)c1cc(Cn2nnc(C(F)(C(F)(F)F)C(F)(F)F)n2)nn1-c1ncccc1Cl (stereo not drawn) [Example 368] | ≥ 80% | ≥ 80% | – | –
– | 3.73 | Cc1cc(I)cc(C(=O)NC(C)(C)C)c1NC(=O)c1cc(Cn2nnnc2C(F)(F)F)nn1-c1ncccc1Br [Example 496] | ≥ 80% | ≥ 80% | – | –
– | 3.52 | CNC(=O)c1cc(Cl)cc(C)c1NC(=O)c1cc(Cn2nnnc2C(F)(F)F)nn1-c1cc(Cl)ccc1Cl [Example 473] | ≥ 80% | ≥ 80% | – | –
3.4 | – | CNC(=O)c1cc(I)cc(C)c1NC(=O)c1cc(Cn2nnc(C(F)(F)F)n2)nn1-c1ncccc1C(F)(F)F [Example 247] | ≥ 80% | ≥ 80% | – | –
3.32 | – | CNC(=O)c1cc(Cl)cc(C)c1NC(=O)c1cc(Cn2nnc(C(F)(F)F)n2)nn1-c1ccccc1F [Example 311] | ≥ 80% | ≥ 80% | – | –
